# Measured values published in patent US20080293771A1, “AZACYCLYLBENZAMIDE DERIVATIVES AS HISTAMINE-3 ANTAGONISTS” (Wyeth, priority 2007, published 2008).
# Structures can show the parent of a compound that is named as a salt.
# Target: T1, Human Histamine H3 Receptor (Homo sapiens, UniProt Q9Y5N1)
# T1 construct: expressed in transfected cells; host or cells: HEK293T (stably transfected; membrane preparation)
# Experiment: Methyl histamine binding in Human Histamine H3 Receptor Cell Line
# Settings: read-out: hH3 Binding Ki
# Protocol: Evaluation of Methyl histamine binding in Human Histamine H3 Receptor Cell Line
# The affinity of test compounds for the histamine 3 (H3) receptor is evaluated in the following manner. […] Cells are scraped from the plate, transferred to centrifuge tubes, washed one time in PBS by centrifugation in a Sorvall RT7 Plus centrifuge (2000 rpm 10 minutes, 4° C.). The resulting pellets are stored at −80° C. until ready for use. Cells are re-suspended in buffer (50 mM Tris pH=7.5) and placed in a Dounce homogenizer, douncing ten times to homogenize cells. The homogenate is spun down by centrifugation (Sorvall RT7 Plus, 1800 rpm 10 minutes, 4° C.). The supernatant is placed in a Corex tube and spun down by centrifugation (Sorvall RC 5c Plus, 17,000 rpm 20 minutes, 4° C.). The pellet is resuspended in buffer (50 mM Tris, pH 7.5). Protein concentration (ug/ul) is determined using the Micro-BCA Protein Determination. The binding assay is set up in a 96 well microtiter plate in a total volume of 250 uL. Non-specific binding is determined in the presence of 10 uM clobenpropit. The final radioligand concentration is 1 nM. The test compound is serially diluted using the Beckman Biomek2000 to a final approximate range of 100 uM to 100 pM. Membranes are suspended in buffer, homogenized in 2 bursts of ten seconds using a Vitris mechanical homogenizer set at power setting 5. Ten μg of membranes are added to each well. Following a one hour incubation at 30° C., the reaction is terminated by the addition of ice cold buffer and rapid filtration with a Packard Filtermate Harvester through a GF/B filter pre-soaked with 1% PEI for one hour. The plate is dried for one hour at 37° C. and 60 μL Microscint Scintillant is added to each well. The CPM per well is measured on a Packard Top Count NXT. Ki values are determined in nM. […] CPM values are expressed as % specific binding and plotted vs compound concentration. A curve is fitted using a four-parameter logistic fit and the IC50 value is determined. The Ki is calculated from this using the Cheng-Prusoff equation: […]=IC50/1+(L/Kd) where L=concentration of free radioligand used in the assay, and Kd is the dissociation constant of the radioligand for the receptor. L is determined for each experiment by counting an aliquot of the diluted radioligand (corresponding to that added to each well) and the Kd has previously been determined under identical conditions for this cell line/radioligand.
# T1 sequence (Q9Y5N1 whole entry): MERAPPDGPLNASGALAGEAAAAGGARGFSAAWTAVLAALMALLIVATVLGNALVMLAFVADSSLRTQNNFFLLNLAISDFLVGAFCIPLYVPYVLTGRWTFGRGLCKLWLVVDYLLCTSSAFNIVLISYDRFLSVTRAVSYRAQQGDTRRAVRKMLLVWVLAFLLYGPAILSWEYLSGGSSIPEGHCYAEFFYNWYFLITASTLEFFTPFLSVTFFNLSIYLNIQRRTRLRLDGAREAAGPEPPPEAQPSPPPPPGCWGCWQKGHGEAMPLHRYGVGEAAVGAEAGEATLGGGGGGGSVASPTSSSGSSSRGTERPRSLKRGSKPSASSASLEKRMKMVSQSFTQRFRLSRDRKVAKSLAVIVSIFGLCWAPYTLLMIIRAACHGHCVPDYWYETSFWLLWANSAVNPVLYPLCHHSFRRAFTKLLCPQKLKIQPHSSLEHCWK
row,SMILES,Ki [nM]
1,"Cc1nc2ccccc2n1-c1ccc(C(=O)N(C)C2CCNCC2)cc1 [Example 30, N-Methyl-4-(2-methylbenzimidazol-1-yl)-N-piperidin-4-yl-benzamide Hydrochloride]",> 100
2,"Cc1nc2ccccc2n1Cc1ccc(C(=O)N(C)[C@@H]2CCN(C3CCCCC3)C2)cc1 [Example 40, N-[(3R)-1-cyclohexylpyrrolidin-3-yl]-N-methyl-4-[(2-methyl-1H-benzimidazol-1-yl)methyl]benzamide]",10.1 to 50
3,"Cc1nc2ccccc2n1Cc1ccc(C(=O)N(C)C2CCN(C3CCC3)CC2)cc1 [Example 47, N-(1-cyclobutylpiperidin-4-yl)-N-methyl-4-[(2-methyl-1H-benzimidazol-1-yl)methyl]benzamide]",> 100
4,"CC(C)N1CCC(N(C)C(=O)c2ccc(Cn3cnc4ccccc43)cc2)CC1 [Example 49, 4-(1H-benzimidazol-1-ylmethyl)-N-(1-isopropylpiperidin-4-yl)-N-methylbenzamide]",50.1 to 100
5,"CN(C(=O)c1ccc(Cn2cnc3ccccc32)cc1)C1CCN(C2CCCC2)CC1 [Example 51, 4-(1H-benzimidazol-1-ylmethyl)-N-(1-cyclopentylpiperidin-4-yl)-N-methylbenzamide]",> 100
6,"Cc1nc2cc(C#N)ccc2n1-c1ccc(C(=O)N(C)[C@@H]2CCN(C(C)C)C2)cc1 [Example 54, 4-(5-cyano-2-methyl-1H-benzimidazol-1-yl)-N-[(3R)-1-isopropylpyrrolidin-3-yl]-N-methylbenzamide]",≤ 10
7,"Cc1nc2cc(C#N)ccc2n1-c1ccc(C(=O)N(C)[C@@H]2CCN(C3CCCC3)C2)cc1 [Example 56, 4-(5-cyano-2-methyl-1H-benzimidazol-1-yl)-N-[(3R)-1-cyclopentylpyrrolidin-3-yl]-N-methylbenzamide]",10.1 to 50
8,"CN(C(=O)c1ccc(-n2cc3ccccc3n2)cc1)[C@@H]1CCNC1 [Example 60a, (R)-4-Indazol-2-yl-N-methyl-N-pyrrolidin-3-yl-benzamide]",> 100
9,"CN(C(=O)c1ccc(-n2cc3ccccc3n2)cc1)[C@@H]1CCN(C2CCC2)C1 [Example 62, N-[(3R)-1-cyclobutylpyrrolidin-3-yl]-4-(2H-indazol-2-yl)-N-methylbenzamide]",≤ 10
10,"CC(C)N1CC[C@@H](N(C)C(=O)c2ccc(-n3ncc4ccccc43)cc2)C1 [Example 64, 4-(1H-indazol-1-yl)-N-[(3R)-1-isopropylpyrrolidin-3-yl]-N-methylbenzamide]",≤ 10
11,"CN(C(=O)c1ccc(-n2cc3ccccc3n2)cc1)C1CCN(C2CCC2)CC1 [Example 70, N-(1-cyclobutylpiperidin-4-yl)-4-(2H-indazol-2-yl)-N-methylbenzamide]",> 100
12,"CN(C(=O)c1ccc(-n2ncc3ccccc32)cc1)C1CCN(C2CCC2)CC1 [Example 73, N-(1-cyclobutylpiperidin-4-yl)-4-(1H-indazol-1-yl)-N-methylbenzamide]",> 100
13,"CN(C(=O)c1ccc(-n2ncc3ccccc32)cc1)C1CCN(C2CCCC2)CC1 [Example 74, N-(1-cyclopentylpiperidin-4-yl)-4-(1H-indazol-1-yl)-N-methylbenzamide]",> 100
14,"CN(C(=O)c1ccc(Cn2ncc3ccccc32)cc1)[C@@H]1CCNC1 [Example 75, (R)-4-((1H-indazol-1-yl)methyl)-N-methyl-N-(pyrrolidin-3yl)benzamide]",> 100
15,"CC(C)N1CC[C@@H](N(C)C(=O)c2ccc(Cn3ncc4ccccc43)cc2)C1 [Example 76, 4-(1H-indazol-1-ylmethyl)-N-[(3R)-1-isopropylpyrrolidin-3-yl]-N-methylbenzamide]",50.1 to 100
16,"CN(C(=O)c1ccc(Cn2ncc3ccccc32)cc1)[C@@H]1CCN(C2CCC2)C1 [Example 77, N-[(3R)-1-cyclobutylpyrrolidin-3-yl]-4-(1H-indazol-1-ylmethyl)-N-methylbenzamide]",10.1 to 50
17,"CN(C(=O)c1ccc(Cn2ncc3ccccc32)cc1)[C@@H]1CCN(C2CCCC2)C1 [Example 78, N-[(3R)-1-cyclopentylpyrrolidin-3-yl]-4-(1H-indazol-1-ylmethyl)-N-methylbenzamide]",50.1 to 100

# Now from value to molecule:
row,Ki [nM],SMILES
1,≤ 10,"Cc1nc2ccccc2n1-c1ccc(C(=O)N(C)C2CCN(C(C)C)CC2)cc1 [Example 31, N-(1-isopropylpiperidin-4-yl)-N-methyl-4-(2-methyl-1H-benzimidazol-1-yl)benzamide]"
2,≤ 10,"Cc1nc2ccccc2n1-c1ccc(C(=O)N(C)C2CCN(C3CCCC3)CC2)cc1 [Example 32, N-(1-cyclopentylpiperidin-4-yl)-N-methyl-4-(2-methyl-1H-benzimidazol-1-yl)benzamide]"
3,> 100,"Cc1nc2ccccc2n1-c1ccc(C(=O)N(C)C2CCN(C3CCCCC3)CC2)cc1 [Example 33, N-(1-cyclohexylpiperidin-4-yl)-N-methyl-4-(2-methyl-1H-benzimidazol-1-yl)benzamide]"
4,10.1 to 50,"Cc1nc2ccccc2n1-c1ccc(C(=O)N(C)C2CCN(C3CCC3)CC2)cc1 [Example 34, N-(1-cyclobutylpiperidin-4-yl)-N-methyl-4-(2-methyl-1H-benzimidazol-1-yl)benzamide]"
5,> 100,"Cc1nc2ccccc2n1Cc1ccc(C(=O)N(C)[C@@H]2CCNC2)cc1 [Example 35, N-Methyl-4-[(2-methylbenzimidazol-1-yl)methyl]-N—(R)-pyrrolidin-3-yl-benzamide Hydrochloride]"
6,> 100,"CN(C(=O)c1ccc(Cn2cnc3ccccc32)cc1)[C@@H]1CCNC1 [Example 36, (R)-4-((1H-benzo[d]imidazol-1-yl)methyl)-N-methyl-N-(pyrrolidin-3-yl)benzamide Hydrochloride]"
7,50.1 to 100,"Cc1nc2ccccc2n1Cc1ccc(C(=O)N(C)C2CCN(C(C)C)CC2)cc1 [Example 46, N-(1-isopropylpiperidin-4-yl)-N-methyl-4-[(2-methyl-1H-benzimidazol-1-yl)methyl]benzamide]"
8,> 100,"Cc1nc2ccccc2n1Cc1ccc(C(=O)N(C)C2CCN(C3CCCC3)CC2)cc1 [Example 48, N-(1-cyclopentylpiperidin-4-yl)-N-methyl-4-[(2-methyl-1H-benzimidazol-1-yl)methyl]benzamide]"
9,> 100,"CN(C(=O)c1ccc(Cn2cnc3ccccc32)cc1)C1CCN(C2CCC2)CC1 [Example 50, 4-(1H-benzimidazol-1-ylmethyl)-N-(1-cyclobutylpiperidin-4-yl)-N-methylbenzamide]"
10,≤ 10,"Cc1nc2cc(C#N)ccc2n1-c1ccc(C(=O)N(C)[C@@H]2CCN(C3CCC3)C2)cc1 [Example 55, 4-(5-cyano-2-methyl-1H-benzimidazol-1-yl)-N-[(3R)-1-cyclobutylpyrrolidin-3-yl]-N-methylbenzamide]"
11,> 100,"CN(C(=O)c1ccc(-n2ncc3ccccc32)cc1)[C@@H]1CCNC1 [Example 60b, (R)-4-Indazol-1-yl-N-methyl-N-pyrrolidin-3-yl-benzamide]"
12,≤ 10,"CC(C)N1CC[C@@H](N(C)C(=O)c2ccc(-n3cc4ccccc4n3)cc2)C1 [Example 61, 4-(2H-indazol-2-yl)-N-[(3R)-1-isopropylpyrrolidin-3-yl]-N-methylbenzamide]"
13,≤ 10,"CN(C(=O)c1ccc(-n2cc3ccccc3n2)cc1)[C@@H]1CCN(C2CCCC2)C1 [Example 63, N-[(3R)-1-cyclopentylpyrrolidin-3-yl]-4-(2H-indazol-2-yl)-N-methylbenzamide]"
14,≤ 10,"CN(C(=O)c1ccc(-n2ncc3ccccc32)cc1)[C@@H]1CCN(C2CCC2)C1 [Example 65, N-[(3R)-1-cyclobutylpyrrolidin-3-yl]-4-(1H-indazol-1-yl)-N-methylbenzamide]"
15,10.1 to 50,"CN(C(=O)c1ccc(-n2ncc3ccccc32)cc1)[C@@H]1CCN(C2CCCC2)C1 [Example 66, N-[(3R)-1-cyclopentylpyrrolidin-3-yl]-4-(1H-indazol-1-yl)-N-methylbenzamide]"
16,> 100,CN(C(=O)c1ccc(-n2ncc3ccccc32)cc1)C1CCNCC1 [Example 68]
17,50.1 to 100,"CC(C)N1CCC(N(C)C(=O)c2ccc(-n3cc4ccccc4n3)cc2)CC1 [Example 69, 4-(2H-indazol-2-yl)-N-(1-isopropylpiperidin-4-yl)-N-methylbenzamide]"
18,> 100,"CN(C(=O)c1ccc(-n2cc3ccccc3n2)cc1)C1CCN(C2CCCC2)CC1 [Example 71, N-(1-cyclopentylpiperidin-4-yl)-4-(2H-indazol-2-yl)-N-methylbenzamide]"
19,50.1 to 100,"CC(C)N1CCC(N(C)C(=O)c2ccc(-n3ncc4ccccc43)cc2)CC1 [Example 72, 4-(1H-indazol-1-yl)-N-(1-isopropylpiperidin-4-yl)-N-methylbenzamide]"
